# Reference: patent publication US20240067693A1, “POLYPEPTIDES AND USES THEREOF” (MEDIMMUNE LIMITED, priority 2020, published 2024)
# Numbered stars: 1 amine (or outer) side, 2 acyl side, 3 side chain; on linkers, the order of the positions; unused ones are H or OH. Bridge positions count the residues as written; N and C are the ends. Square brackets hold non-standard residues; d marks the D form. Side chains are listed from the residue outwards. Peptide text beside a SMILES is read from it. * marks the point of attachment. C18 diacid = O=C(O)CCCCCCCCCCCCCCCCC(=O)*; γGlu = O=C(O)[C@H](CCC(=O)[*:2])N[*:1]; Dab = NCC[C@H](N)C(=O)O; AEEA = NCCOCCOCC(=O)O; Aib = CC(C)(N)C(=O)O
# Assays:
# [1] = target: T1, human amylin receptor (calcitonin receptor co-expressed with receptor activity modifying protein, RAMP3) (hAMYR3) (Homo sapiens, UniProt O60896+P30988); assay: cAMP production in 1321N1 cells with stable recombinant expression of human amylin receptor (hAMYR3); type: cell-based; settings: for Ratio (selectivity hAMYR vs hCTR, ratio of EC50 values at the two receptors): EC50 hCTR / EC50 hAMYR3; for EC50: cAMP, 1321N1 cells, assay buffer with 0.1% BSA, read-out: EC50 (pM) hAMYR3
# T1 construct: expressed in transfected cells
# T1 sequence (P30988 25-474): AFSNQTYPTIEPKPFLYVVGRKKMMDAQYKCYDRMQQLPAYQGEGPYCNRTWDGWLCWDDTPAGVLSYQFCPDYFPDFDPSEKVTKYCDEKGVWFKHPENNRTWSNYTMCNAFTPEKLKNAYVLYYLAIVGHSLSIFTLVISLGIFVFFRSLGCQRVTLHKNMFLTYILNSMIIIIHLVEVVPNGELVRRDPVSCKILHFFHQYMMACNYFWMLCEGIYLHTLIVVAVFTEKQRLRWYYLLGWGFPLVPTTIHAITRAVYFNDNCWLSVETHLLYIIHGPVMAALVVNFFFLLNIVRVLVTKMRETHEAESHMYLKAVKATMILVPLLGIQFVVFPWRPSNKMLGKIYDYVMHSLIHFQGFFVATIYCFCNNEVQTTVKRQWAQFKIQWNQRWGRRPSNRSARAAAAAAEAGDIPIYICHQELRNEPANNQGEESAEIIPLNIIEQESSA
# T1 sequence (O60896 24-148 partner): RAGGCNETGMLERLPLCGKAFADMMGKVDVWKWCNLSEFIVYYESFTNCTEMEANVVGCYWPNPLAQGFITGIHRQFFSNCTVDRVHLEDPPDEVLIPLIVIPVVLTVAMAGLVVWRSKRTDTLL
# Summary of the method: (§1)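 Thawed cells in HBSS/0.1% BSA/25 mM HEPES pH 7.4 with 0.5 mM IBMX were incubated with peptides 30 min at room temperature; cAMP read by HTRF. EC50 from 4-parameter fit of % activation relative to maximal amylin or calcitonin effect.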
# [2] = target: T2, human calcitonin receptor (hCTR) (Homo sapiens, UniProt P30988); assay: cAMP production in 1321N1 cells with stable recombinant expression of human calcitonin receptor (hCTR); type: cell-based; settings: cAMP, 1321N1 cells, assay buffer with 0.1% BSA; read-out: EC50 (pM) hCTR
# T2 construct: expressed in transfected cells
# T2 sequence (P30988 25-474): T1 sequence (P30988 25-474)
# Summary of the method: as §1
Compound,"Ratio (selectivity hAMYR vs hCTR, ratio of EC50 values at the two receptors) [1]",EC50 [1] [pM],EC50 [2] [pM]
"CC[C@H](C)[C@H](NC(=O)[C@@H]1CCCN1C(=O)CNC(=O)[C@H](Cc1ccccc1)NC(=O)[C@H](CC(N)=O)NC(=O)[C@H](CCN)NC(=O)[C@H](CO)NC(=O)[C@H](CO)NC(=O)[C@H](Cc1c[nH]cn1)NC(=O)C(C)(C)NC(=O)[C@H](CC(C)C)NC(=O)[C@H](Cc1ccccc1)NC(=O)[C@H](CC(N)=O)NC(=O)[C@H](C)NC(=O)[C@H](CC(C)C)NC(=O)[C@H](CCCNC(=N)N)NC(=O)[C@H](CCC(N)=O)NC(=O)[C@@H](NC(=O)[C@H](C)NC(=O)[C@@H]1CSSC[C@H](NC(=O)[C@@H](N)CCCCNC(=O)CC[C@H](NC(=O)CCCCCCCCCCCCCCCCC(=O)O)C(=O)O)C(=O)N[C@@H](CC(N)=O)C(=O)N[C@@H]([C@@H](C)O)C(=O)N[C@@H](C)C(=O)N[C@@H]([C@@H](C)O)C(=O)N1)[C@@H](C)O)C(=O)N[C@@H](CC(C)C)C(=O)N1CCC[C@H]1C(=O)N1CCC[C@H]1C(=O)N[C@H](C(=O)N[C@@H](CC(N)=O)C(=O)N[C@H](C(=O)NCC(=O)N[C@@H](CO)C(=O)N[C@@H](CC(N)=O)C(=O)N[C@H](C(=O)N[C@@H](Cc1ccc(O)cc1)C(N)=O)[C@@H](C)O)C(C)C)[C@@H](C)O [Peptide 150, K(γE-C18diacid)[CNTATC]ATQRLANFL(Aib)HSS(Dab)NFGPILPPTNVGSNTY-amide] (H-K([γGlu-C18 diacid])CNTATCATQRLANFL[Aib]HSS[Dab]NFGPILPPTNVGSNTY-NH2; disulfide 2-7; N-terminus assumed)",23.4,179,4180
"CC[C@H](C)[C@H](NC(=O)[C@@H]1CCCN1C(=O)CNC(=O)[C@H](Cc1ccccc1)NC(=O)[C@H](CC(N)=O)NC(=O)[C@H](CC(N)=O)NC(=O)[C@H](CO)NC(=O)[C@H](CO)NC(=O)[C@H](Cc1c[nH]cn1)NC(=O)C(C)(C)NC(=O)[C@H](CC(C)C)NC(=O)[C@H](Cc1ccccc1)NC(=O)[C@H](CC(N)=O)NC(=O)[C@H](C)NC(=O)[C@H](CC(C)C)NC(=O)[C@H](CCCNC(=N)N)NC(=O)[C@H](CCC(N)=O)NC(=O)[C@@H](NC(=O)[C@H](C)NC(=O)[C@@H]1CSSC[C@H](NC(=O)[C@@H](N)CCCCNC(=O)CC[C@H](NC(=O)CCCCCCCCCCCCCCCCC(=O)O)C(=O)O)C(=O)N[C@@H](CC(N)=O)C(=O)N[C@@H]([C@@H](C)O)C(=O)N[C@@H](C)C(=O)N[C@@H]([C@@H](C)O)C(=O)N1)[C@@H](C)O)C(=O)N[C@H](CC(C)C)C(=O)N1CCC[C@H]1C(=O)N1CCC[C@H]1C(=O)N[C@H](C(=O)N[C@@H](CC(N)=O)C(=O)N[C@H](C(=O)NCC(=O)N[C@@H](CO)C(=O)N[C@@H](CC(N)=O)C(=O)N[C@H](C(=O)N[C@@H](Cc1ccc(O)cc1)C(N)=O)[C@@H](C)O)C(C)C)[C@@H](C)O [Peptide 151, K(γE-C18diacid)[CNTATC]ATQRLANFL(Aib)HSSNNFGPI(dL)PPTNVGSNTY-amide] (H-K([γGlu-C18 diacid])CNTATCATQRLANFL[Aib]HSSNNFGPI[dL]PPTNVGSNTY-NH2; disulfide 2-7; N-terminus assumed)",14.7,61,898
CC[C@H](C)[C@H](NC(=O)[C@@H]1CCCN1C(=O)CNC(=O)[C@H](Cc1ccccc1)NC(=O)[C@H](CC(N)=O)NC(=O)CNC(=O)[C@H](CO)NC(=O)[C@H](CO)NC(=O)[C@H](Cc1c[nH]cn1)NC(=O)C(C)(C)NC(=O)[C@H](CC(C)C)NC(=O)[C@H](Cc1ccccc1)NC(=O)[C@H](CC(N)=O)NC(=O)[C@H](C)NC(=O)[C@H](CC(C)C)NC(=O)[C@H](CCCNC(=N)N)NC(=O)[C@H](CCC(N)=O)NC(=O)[C@@H](NC(=O)[C@H](C)NC(=O)[C@@H]1CSSC[C@H](NC(=O)[C@H](CCCCN)NC(=O)[C@@H](N)CCCCNC(=O)CC[C@H](NC(=O)CCCCCCCCCCCCCCCCC(=O)O)C(=O)O)C(=O)N[C@@H](CC(N)=O)C(=O)N[C@@H]([C@@H](C)O)C(=O)N[C@@H](C)C(=O)N[C@@H]([C@@H](C)O)C(=O)N1)[C@@H](C)O)C(=O)N[C@@H](CC(C)C)C(=O)N1CCC[C@H]1C(=O)N1CCC[C@H]1C(=O)N[C@H](C(=O)N[C@@H](CC(N)=O)C(=O)N[C@H](C(=O)NCC(=O)N[C@@H](CO)C(=O)N[C@@H](CC(N)=O)C(=O)N[C@H](C(=O)N[C@@H](Cc1ccc(O)cc1)C(N)=O)[C@@H](C)O)C(C)C)[C@@H](C)O [Peptide 154] (H-K([γGlu-C18 diacid])KCNTATCATQRLANFL[Aib]HSSGNFGPILPPTNVGSNTY-NH2; disulfide 3-8; N-terminus assumed),2.7,574,1540

# Further compounds by falling EC50 [1], results first:
"Ratio (selectivity hAMYR vs hCTR, ratio of EC50 values at the two receptors) [1]",EC50 [1] [pM],EC50 [2] [pM],Compound
1.9,802,1510,CC[C@H](C)[C@H](NC(=O)[C@@H]1CCCN1C(=O)CNC(=O)[C@H](Cc1ccccc1)NC(=O)[C@H](Cc1c[nH]cn1)NC(=O)[C@H](CC(N)=O)NC(=O)[C@H](CO)NC(=O)[C@H](CO)NC(=O)[C@H](Cc1c[nH]cn1)NC(=O)C(C)(C)NC(=O)[C@H](CC(C)C)NC(=O)[C@H](Cc1ccccc1)NC(=O)[C@H](CC(N)=O)NC(=O)[C@H](C)NC(=O)[C@H](CC(C)C)NC(=O)[C@H](CCCNC(=N)N)NC(=O)[C@H](CCC(N)=O)NC(=O)[C@@H](NC(=O)[C@H](C)NC(=O)[C@@H]1CSSC[C@H](NC(=O)[C@H](CCCCN)NC(=O)[C@@H](N)CCCCNC(=O)CC[C@H](NC(=O)CCCCCCCCCCCCCCCCC(=O)O)C(=O)O)C(=O)N[C@@H](CC(N)=O)C(=O)N[C@@H]([C@@H](C)O)C(=O)N[C@@H](C)C(=O)N[C@@H]([C@@H](C)O)C(=O)N1)[C@@H](C)O)C(=O)N[C@@H](CC(C)C)C(=O)N1CCC[C@H]1C(=O)N1CCC[C@H]1C(=O)N[C@H](C(=O)N[C@@H](CC(N)=O)C(=O)N[C@H](C(=O)NCC(=O)N[C@@H](CO)C(=O)N[C@@H](CCC(=O)O)C(=O)N[C@H](C(=O)N[C@@H](Cc1ccc(O)cc1)C(N)=O)[C@@H](C)O)C(C)C)[C@@H](C)O [Peptide 147] (H-K([γGlu-C18 diacid])KCNTATCATQRLANFL[Aib]HSSNHFGPILPPTNVGSETY-NH2; disulfide 3-8; N-terminus assumed)
3.8,191,728,CC[C@H](C)[C@H](NC(=O)[C@@H]1CCCN1C(=O)CNC(=O)[C@H](Cc1ccccc1)NC(=O)[C@H](CC(N)=O)NC(=O)[C@H](CC(N)=O)NC(=O)[C@H](CO)NC(=O)[C@H](CO)NC(=O)[C@H](Cc1c[nH]cn1)NC(=O)C(C)(C)NC(=O)[C@H](CC(C)C)NC(=O)[C@H](Cc1ccccc1)NC(=O)[C@H](CC(N)=O)NC(=O)[C@H](C)NC(=O)[C@H](CC(C)C)NC(=O)[C@H](CCCNC(=N)N)NC(=O)[C@H](CCC(N)=O)NC(=O)[C@@H](NC(=O)[C@H](C)NC(=O)[C@@H]1CSSC[C@H](NC(=O)[C@H](CCCCN)NC(=O)[C@@H](N)CCCCNC(=O)CC[C@H](NC(=O)CCCCCCCCCCCCCCCCC(=O)O)C(=O)O)C(=O)N[C@@H](CC(N)=O)C(=O)N[C@@H]([C@@H](C)O)C(=O)N[C@@H](C)C(=O)N[C@@H]([C@@H](C)O)C(=O)N1)[C@@H](C)O)C(=O)N[C@@H](CC(C)C)C(=O)N1CCC[C@H]1C(=O)N1CCC[C@H]1C(=O)N[C@H](C(=O)N[C@@H](CC(N)=O)C(=O)N[C@H](C(=O)NCC(=O)N1CCC[C@H]1C(=O)N[C@@H](CC(N)=O)C(=O)N[C@H](C(=O)N[C@@H](Cc1ccc(O)cc1)C(N)=O)[C@@H](C)O)C(C)C)[C@@H](C)O [Peptide 148] (H-K([γGlu-C18 diacid])KCNTATCATQRLANFL[Aib]HSSNNFGPILPPTNVGPNTY-NH2; disulfide 3-8)
12,173,2160,H-K([AEEA-AEEA-γGlu-C18 diacid])GGGKCNTATCATQRLANFLVHSSNNFGPILPPTNVGSNTY-NH2 (disulfide 6-11) [Peptide 7]
